Data as given in patent publication US20150031892A1, “SPHINGOLIPID METABOLITE MIMETICS” (Zhejiang University, priority 2012, published 2015).
Like-named read-outs stand apart in the source and are kept apart here.

Experiments:
Assay type in all cases: cell-based
HepG2 = assay: MTT cytotoxicity assay, HepG2 (liver cancer); conditions: Homo sapiens
Outline: (§1)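 Cells were seeded at 7000 per well for 24 h, then given fresh medium with the mimetics at final concentrations of 0 to 200 μM. Viability was measured by adding 1 mg/ml MTT for 4 h at 37° C, dissolving the formazan in DMSO and reading absorbance at 570 nm.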

A431 = assay: MTT cytotoxicity assay, A431 (squamous carcinoma); conditions: Homo sapiens, A-431
Outline: as §1

SA = assay: MTT cytotoxicity assay, SA (pancreatic cancer as headed)
Outline: as §1

MCF-7 = assay: MTT cytotoxicity assay, MCF-7 (breast cancer); conditions: Homo sapiens, MCF7; Breast Cancer MCF-7, MTT
Outline: as §1

SiHa = assay: MTT cytotoxicity assay, SiHa (ovarian cancer as headed); conditions: Homo sapiens, Cervical Cancer SiHa
SW620 = assay: MTT cytotoxicity assay, SW620 (colon cancer); conditions: Homo sapiens, SW-620
SW480 = assay: MTT cytotoxicity assay, SW480 (colon cancer); conditions: Homo sapiens
[1] = system: multiple types of cancer cells; assay: MTT cytotoxicity, statements over several cancer cell lines; conditions: for direct anti-cancer cell activity: summary statement
Protocol: Cell survival after exposure to the sphingolipid metabolite mimetics was examined by MTT cytotoxicity assay. HepG2, A431, HeLa, MCF-7 and SA cells (7000 cells/well) were seeded in each well of a 96-well plate for 24 h. New medium was added to give final concentrations of 0 to 200 μM of the sphingolipid metabolite mimetics. Then, 50 μl of 1 mg/ml 3-(4,5-dimethylthiazol-2-yl)-2,5-diphenyltetrazolium bromide (MTT, Sigma-Aldrich Chemical) was added to each well for 4 h incubation at 37° C. The purple formazan formed was then solubilized by DMSO and absorbance at 570 nm was read by a microplate reader (Molecular Devices, Sunnyvale, Calif.).

MES-SA cells = assay: Apoptosis assay, Hoechst 33342 fluorescence staining; conditions: doses of their IC50 for 8 h
Protocol: The cells were then washed with PBS and stained with Hoechst 33342 (from sigma chemical) for 20 min in the dark. Morphologic changes were analyzed under a fluorescence microscope. The experiment was repeated three times.

SW620 cells = assay: Drug sensitivity MTT assay with TRAIL, SW620; parameters: scale not given here
Protocol: (§2) Cell survival after exposure to the anti-tumor agents was examined by MTT cytotoxicity assay. Cells were seeded in each well of a 96-well plate for 24 h. After incubation with various concentrations of compounds, TRAIL, or both for 48 h, the medium was discarded. Then, 50 μl of 1 mg/ml 3-(4,5-dimethylthiazol-2-yl)-2,5-diphenyltetrazolium bromide (MTT, Sigma-Aldrich Chemical) was added to each well for 4 h incubation at 37° C. The purple formazan formed was then solubilized by DMSO and absorbance at 570 nm was read by a microplate reader (Molecular Devices, Sunnyvale, Calif.).

MCF-7 cells = assay: Drug sensitivity MTT assay with TRAIL, MCF-7; parameters: scale not given here
Protocol: as §2

HELA cells = assay: Drug sensitivity MTT assay with TRAIL, HELA; parameters: scale not given here
Protocol: as §2

[2] = system: cancer cells (TRAIL resistance); assay: Sensitization of cancer cells to TRAIL-induced apoptosis, general statements; conditions: summary statement
Protocol: as §2

[3] = all five cell lines tested, read-out: IC50 values
[4] = drug alone (19-100 μM; TRAIL 100 ng/ml), 48 h
[5] = enhancement due to co-administration with TRAIL
[6] = mimetic at the dose of its row combined with TRAIL 100 ng/ml, 48 h

Row | SMILES | IC50 (HepG2) [µM] | IC50 (A431) [µM] | IC50 (SA) [µM] | IC50 (MCF-7) [µM] | IC50 (SiHa) [µM] | IC50 (SW620) [µM] | IC50 (SW480) [µM] | IC50 [1, 3] [µM] | direct anti-cancer cell activity [1] | apoptotic cell death, fluorescent micrographs (FIG. 30) (MES-SA cells) | other results
1 | CCCCCCCCCCCCNC(=O)[C@@H](NC(=O)Cc1c[nH]c2ccccc12)[C@@H](C)O [NZJU27, N-((2S,3R)-3-hydroxy-1-oxo-1-(dodecylamino)butan-2-yl)-indole-3-acetic acid amide] | 22.6 ± 2.89 | 23.4 ± 3.48 | 20 ± 0.74 | 15.5 ± 2.3 | 13.6 ± 1.02 | 22 ± 2.86 | 20 | < 30 | direct anti-cancer cell activity | apoptotic cell death | –
2 | CCCCCCCCCCCCCCNC(=O)[C@@H](NC(=O)Cc1c[nH]c2ccccc12)[C@@H](C)O [NZJU28, N-((2S,3R)-3-hydroxy-1-oxo-1-(tetradecylamino)butan-2-yl)-indole-3-acetic acid amide] | 21.1 ± 1.92 | 15.5 ± 2.95 | 11.5 ± 0.97 | 6.81 ± 1.73 | 4.8 ± 0.29 | 22 ± 0.71 | 20 | < 30 | direct anti-cancer cell activity | apoptotic cell death | –
3 | CCCCCCCCCCCCNC(=O)[C@@H](NC(=O)c1cc2ccccc2o1)[C@@H](C)O [NZJU36, N-((2S,3R)-3-hydroxy-1-oxo-1-(dodecylamino)butan-2-yl)-benzofuran-2-carboxamide] | 22.9 ± 1.18 | 20 ± 0.9 | 10.5 ± 1.31 | 20.9 ± 0.54 | 12.8 ± 2.07 | 21.3 ± 1.28 | 21.4 | < 30 | direct anti-cancer cell activity | apoptotic cell death | –
4 | CCCCCCCCCCCCCCNC(=O)[C@@H](NC(=O)c1cc2ccccc2o1)[C@@H](C)O [NZJU37, N-((2S,3R)-3-hydroxy-1-oxo-1-(tetradecylamino)butan-2-yl)-benzofuran-2-carboxamide] | 23.4 ± 1.19 | 20.09 ± 0.16 | 9.61 ± 0.56 | 23.4 ± 1.19 | 14.2 ± 1.84 | 26.7 ± 2.48 | 22.8 | < 30 | direct anti-cancer cell activity | apoptotic cell death | –
5 | C/C=C/C=C/C(=O)N[C@H](C(=O)NCCCCCCCC)[C@@H](C)O [NZJU41, (2E,4E)-N-((2S,3R)-3-hydroxy-1-oxo-1-(octylamino)butan-2-yl)-2,4-hexadienoic acid amide] | 102 ± 4.07 | 58.24 ± 0.11 | 40.4 ± 2.16 | 149 ± 3.24 | 123 ± 2.5 | ≥ 200 | 158 | – | direct anti-cancer cell activity | – | NZJU alone mean value (sensitivity, growth inhibition) (SW620 cells; [4]): 0.551; Enhanced mean value (SW620 cells; [5]): 0.169; combine mean value (sensitivity, growth inhibition) (SW620 cells; [6]): 0.790; NZJU alone mean value (sensitivity, growth inhibition) (MCF-7 cells; [4]): 0.347; Enhanced mean value (MCF-7 cells; [5]): 0.113; combine mean value (sensitivity, growth inhibition) (MCF-7 cells; [6]): 0.625; NZJU alone mean value (sensitivity, growth inhibition) (HELA cells; [4]): 0.362; Enhanced mean value (HELA cells; [5]): 0.421; combine mean value (sensitivity, growth inhibition) (HELA cells; [6]): 0.819; TRAIL sensitization activity [2]: TRAIL sensitization activity
6 | CCCCCCCCCCCCCCNC(=O)[C@@H](NC(=O)c1cc2ccccc2[nH]1)[C@@H](C)O [NZJU48, N-((2S,3R)-3-hydroxy-1-oxo-1-(tetradecylamino)butan-2-yl)-indole-2-carboxamide] | 10.5 ± 0.35 | 12.2 ± 1.9 | 12.1 ± 2.77 | – | 14.2 ± 1.8 | – | 11.8 ± 1.46 | – | direct anti-cancer cell activity | apoptotic cell death | IC50 ([1]; all of the cell lines tested, read-out: IC50 values): < 20 µM; IC50 ([1]; multiple types of cancer cells, read-out: IC50): < 20 µM
7 | CCCCCCCCCCCCCCNC(=O)[C@@H](NC(=O)c1cc2ccccc2n1C)[C@@H](C)O [NZJU51, N-((2S,3R)-3-hydroxy-1-oxo-1-(tetradecylamino)butan-2-yl)-(N-methyl)indole-2-carboxamide] | 34.5 ± 2.34 | 13.7 ± 1.73 | 25.7 ± 0.42 | – | 26.5 ± 2.33 | – | 34.2 ± 1.36 | – | direct anti-cancer cell activity | apoptotic cell death | –
